Assay [1] deals with QS signaling in E. coli. To be noted: after in vivo phosphorylation by LsrK; cited from earlier work.
The subject of assay [2] is QS signaling in S. typhimurium. Conditions: after in vivo phosphorylation by LsrK; cited from earlier work.
Assay [3] has as its system E. coli biofilms. Conditions: simultaneous treatment with the antibiotic gentamicin; cited from earlier work.
The target of assay [4] is T1, LsrR (Escherichia coli, UniProt P76141). Conditions: for ΔH / ΔS: ITC titration of LsrR. (In general: In ITC the heat of successive injections is recorded.)
T1 sequence (P76141 whole entry): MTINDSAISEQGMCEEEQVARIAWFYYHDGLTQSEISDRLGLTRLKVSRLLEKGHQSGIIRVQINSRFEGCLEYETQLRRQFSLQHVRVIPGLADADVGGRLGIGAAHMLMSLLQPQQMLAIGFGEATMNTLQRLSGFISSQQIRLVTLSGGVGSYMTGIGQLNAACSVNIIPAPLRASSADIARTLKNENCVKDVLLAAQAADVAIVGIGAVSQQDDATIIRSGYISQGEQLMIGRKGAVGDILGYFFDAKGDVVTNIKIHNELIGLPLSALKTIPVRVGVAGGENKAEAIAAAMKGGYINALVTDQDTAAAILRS
The test system of assay [5] is LsrR. To be noted: cited from earlier work.
For assay [6], the target named is C-LsrR T220A (Escherichia coli, UniProt P76141, T220A). Conditions: compared to wild type C-LsrR.
C-LsrR T220A, sequence (P76141 53-317 T220A): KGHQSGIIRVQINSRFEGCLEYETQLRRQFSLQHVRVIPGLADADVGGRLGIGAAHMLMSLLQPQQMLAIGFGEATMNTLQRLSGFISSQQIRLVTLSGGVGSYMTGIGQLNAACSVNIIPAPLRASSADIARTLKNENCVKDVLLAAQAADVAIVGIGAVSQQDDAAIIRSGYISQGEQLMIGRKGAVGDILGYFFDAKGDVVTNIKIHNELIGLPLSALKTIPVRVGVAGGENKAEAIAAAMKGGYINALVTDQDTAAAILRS
In assay [7] the target is C-LsrR Q215A (Escherichia coli, UniProt P76141, Q215A). To be noted: compared to wild type C-LsrR.
C-LsrR Q215A, sequence (P76141 53-317 Q215A): as the sequence (P76141 53-317 T220A) above, with Q163A, A168T counted along it
For assay [8], the target named is T1, LsrR. To be noted: compared to LsrR alone.
For assay [9], the target named is C-LsrR D243A (Escherichia coli, UniProt P76141, D243A). To be noted: compared to wild type C-LsrR.
C-LsrR D243A, sequence (P76141 53-317 D243A): as the sequence (P76141 53-317 T220A) above, with A168T, D191A counted along it
For assay [10], the target named is C-LsrR K288A (Escherichia coli, UniProt P76141, K288A). To be noted: compared to wild type C-LsrR.
C-LsrR K288A, sequence (P76141 53-317 K288A): as the sequence (P76141 53-317 T220A) above, with A168T, K236A counted along it
For assay [11], the target named is C-LsrR (Escherichia coli, UniProt P76141). Kind of assay: biochemical. Conditions: LsrR-binding affinity (Kd), approximate, rounded summary value.
C-LsrR, sequence (P76141 53-317): as the sequence (P76141 53-317 T220A) above, with A168T counted along it

Read-outs that look alike come from different tables or passages of the source.

In the case of `CC(C)CC(=O)C(=O)[C@@H](O)CO` [isobutyl-DPD], the “Effect on QS signaling” value in assay [1] and in [2] was “attenuated QS signaling” throughout. Moreover, in [3], the Effect on biofilms result is “dramatically reduced biofilm formation and cleared extant biofilms”.
In the case of `CC(=O)C(=O)[C@@H](O)COP(=O)(O)O` [D5P, phospho-DPD], the ΔH in assay [4] (20°C) is 0.98 kcal/mol. For the same compound, the ΔS in [4] (20°C) stood at 23.0 cal/mol/K. Besides, the Kd (as a rule, the equilibrium constant for the complex coming apart) was 1.78 ± 0.13 µM in [4] (read-out: Kd of LsrR (ITC), ITC, 20°C, one-site binding model) and ~2 µM in [4] (read-out: LsrR-binding affinity (Kd), approximate, rounded summary value). Moreover, in assay [5], the Agonist or antagonist entry is “agonists”. Also, in assay [6], the “Effect of T220A mutation on D5P binding affinity” value is on record as “significant decrease of the binding affinity”. Besides, the “Effect of Q215A mutation on D5P binding affinity” value in assay [7] is on record as “moderate”. Also, the “Change of the DLS size distribution of LsrR on addition of ligand” value (from here on “Change”) in [8] is reported as “clearly changed the DLS pattern of LsrR”. In addition, the “Effect of D243A mutation on D5P binding affinity” value in assay [9] is “less affinity for D5P than the wild type”. Also, the “Effect of K288A mutation on D5P binding affinity” value in [10] is on record as “less affinity for D5P than the wild type”.
For phospho-isobutyl DPD [D8P], in assay [4] (20°C), the ΔH is 5.3 kcal/mol and the ΔS was determined as 11.2 cal/mol/K. Further, in assay [5], the Agonist or antagonist entry is “antagonist” and the “Inhibition of LsrR / QS signal transduction” value is listed as “very potent inhibitor”. In addition, in assay [8], the “Change” value is given as “did not show any apparent changes in the size distribution”.
Regarding `CCCC(=O)C(=O)C(O)COP(=O)(O)O` (stereo not shown) [D7P, phospho-propyl-DPD], in [5], the Agonist or antagonist result is recorded as “antagonist”.
As to `O=C[C@H](O)[C@H](O)[C@H](O)COP(=O)(O)O` [R5P, D-ribose 5-phosphate], the Kd in assay [11] was ~1000 µM. In addition, in [8], the “Change” value is listed as “did not show any apparent changes in the size distribution”.
Consider `CCC(=O)C(=O)[C@@H](O)COP(=O)(O)O` [D6P, phospho-ethyl-DPD], for which the Agonist or antagonist result in assay [5] is on record as “agonists”.

The values are drawn from PMC3863386 (Journal of the American Chemical Society, 2013).
